Measurements as given in patent US20240108003A1, “COMPOSITIONS AND METHODS FOR IMPROVING PLANT PERFORMANCE” (Advanced Crop Chemistry, priority 2022, published 2024).
Converted amounts (≈) assume the structure as drawn.

How the values were obtained:
[1] = tested on: Fusarium graminearum Schwabe Group 2; type: in vivo, Fusarium graminearum on wheat; settings: foliar applications to infected wheat; ELISA on pooled grain
[2] = tested on: Peace Lily (Spathiphyllum); assay: Cold tolerance in a cold sensitive plant; type: in vivo; settings: foliar 1 g/L; 4 days of 34-35° F. for 5-6 hours/day one week after treatment
Description: The popular ornamental plant, the “Peace Lily”, is in the genus Spathiphyllum and all species are indigenous to the tropics. […] Three groups of containerized plants (in 6-inch pots, growing in a standard potting media) were established, and foliarly treated with 1 g/L 2HOP or LPGA. A surfactant (polyalkyl glucoside) at 0.25% v/v was added to both treatments to improve leaf coverage. Plants were treated and one week later were exposed 4 days to a diurnal regime of low temperatures (34° F. to 35° F.) for at least 5-6 hours/day and a high temperature of 55° F. to 57° F. for the remainder of the day. Plants were under a natural light regime. […] See Table 10 in FIG. 7A and FIG. 7B.

[3] = tested on: Root Knot nematode (Meloidogyne incognita, M. javanica, M. arenaria, and M. hapla); assay: Soil Root Knot nematode populations, grapevines, Site 1; type: in vivo; settings: Site 1, after 15 months
Description: (§1) Grapevines were treated with L-PGA alone or in combination with Nemacur® at two sites in California. […] Vines at both sites were 6 years old and replanted into sandy soil (CEC <7 meq/100 g soil) previously planted with vines. […] Site 2 was in Fresno County (var: Thompson seedless) and at this site several parasitic nematode species were in evidence (Table 8). Several treatments were undertaken as per Tables 6 & 7. Untreated vines received the standard grower cultural management programs. At both sites the plants were ungrafted. At Site 1, soil levels of nematodes were assessed prior to the onset of treatments and at various times throughout the trial (as given in Table 7). Plants were treated in the spring, summer, and fall and assessed 12, 13, 15 and, 24 months later at Site 1. Yield data were collected at both sites. Site 1 was treated for two seasons and yield was collected over two seasons. At Site 2, yields were collected and soil nematode levels were assessed 18 months after the onset of the treatments. Site 2 was only treated for one season and only one crop year was assessed.

plant parasitic nematode = assay: Soil plant parasitic nematode populations, grapevines, Site 2; type: in vivo, nematodes; settings: Site 2, L-PGA combined with Nemacur
Description: L-PGA was applied by drenching the roots with a solution (5 liters per plant) containing 1 g/L L-PGA. Nemacur® 400ec was applied as a labelled commercial treatment to specific rows at the trial locations by injection through the micro irrigation system (7.5 ml/vine). Each treatment comprised 20 vines in five replicate blocks (4 vines/replicate). […] Several treatments were undertaken as per Tables 6 & 7. Untreated vines received the standard grower cultural management programs. At both sites the plants were ungrafted. […] Yield data were collected at both sites.

Wheat (Winter White) = assay: Herbicide phytotoxicity on greenhouse wheat with and without 2HOP or L-PGA; type: in vivo; settings: for phytotoxic impact of herbicides on wheat: combined with herbicides, foliar, assessed 10 days after application; for canopy biomass compared to the untreated: solo applications, 10 days post-treatment, visual
Description: Wheat (Winter White) seeds (5 g) were sown in a 1-gallon pot in a greenhouse under natural light with a diurnal temperature range of 75° F. to 90° F. Various herbicides were applied alone or in combinations with L-PGA or 2HOP. Materials were applied at the equivalent rate of 100 L water/Ha with 0.25% v/v polyalkyl glucoside added as a wetting agent. There were 4 replicates per treatment, with 1 pot/replicate. 10 days after sowing, plants received a light cover spray at an equivalent application volume of 25 gallons/acre. Plants were destructively assessed 10 days later by measuring the total above-ground biomass of each replicate.

[4] = tested on: Zymoseptoria tritici (Septotia tritici); assay: Growth of fungal plant pathogen on amended potato dextrose agar (colony surface area); type: cell-based; settings: 0.5 g/L in buffered PDA pH 6.2, 10 days, darkness, 68° F.
Description: Zymoseptoria tritici (Septotia tritici) was grown in petri dishes on buffered (pH 6.2) potato dextrose agar (PDA), amended with penicillin (100 mg/L) and streptomycin (100 mg/L) as well as 2HOP (0.5 g/L) or […]). Five replicate plates/treatments were used and the cultures were grown for 10 days in darkness at 68° F. At the end of the 10-day period, the cultures were assessed in terms of the total surface area of growth of the colonies.

[5] = tested on: Wheat seeds (Skyfall variety); assay: Seed treatment, field grown wheat emergence and yield; type: in vivo
Text: The treatments were pre-diluted in an equivalent of 2 liters of water and applied to one ton of seed. The seeds were planted in the fall at a rate of 200 kg/ha.

oat seedlings [6] = assay: Soil application, carbon fixation capability in greenhouse grown oats; type: in vivo; settings: soil drench 75 nanomoles daily; for increase of CO2 fixation compared to the untreated: plants 28 days old
Description: Sets (replicates) of oat seedlings were treated with 2HOP, L-PGA, or left untreated. Seeds were planted in standard potting soil in a greenhouse at a constant 75° F. under natural light, supplied a standard liquid nutrient solution, and treated daily with 75 nanomoles of either 2HOP or L-PGA beginning 14 days after seedling emergence. The treatments were applied as a soil drench. The CO2 fixation rates were measured when plants were 28 days old. The ribulose bisphosphate carboxylase (RUBISCO) activation state was measured when plants were 26 days old. The rates for 20 plants were averaged for each set of plants. […] L-PGA increased CO2 fixation compared to the untreated by 21%. However, when 2HOP is compared to L-PGA in terms of CO2 fixation, 2HOP fixed CO2 at over an 11% higher rate (see Table 14).

lettuce plants = assay: Foliar treatment of lettuce plants, tissue aromatic amino acids; type: in vivo; settings: 0.5 g/L
Text: This is further supported by the data in Table 4 where foliar treatment of lettuce plants with […]) or 2HOP (0.5 g/L) increased the tissue levels of aromatic amino acids which are synthesized in the Shikimic acid pathway, a pathway that has a known role in modulation of plant innate tolerance to abiotic and biotic stresses such as disease.

[7] = tested on: Hard Red Wheat seeds (variety Glenn); assay: Seed treatment, greenhouse-grown wheat leaf emergence; type: in vivo; settings: greenhouse 65° F.
Description: The treatments were pre-diluted in an equivalent of 2 liters of water and applied to one ton of seed. The seeds were planted in a 30 cm×30 cm flat tray at 1 seed/cm^2 in a naturally illuminated greenhouse maintained at 65° F. See Table 19 in FIG. 14.

Grapevines = assay: Yield from grapevines grown in nematode infested soil; type: in vivo, grapevine; settings: L-PGA root drench 1 g/L, Nemacur 7.5 ml/vine, vs untreated vines
Description: as §1

[8] = tested on: free-living (beneficial nematodes); settings: in vivo
Description: as §1

Pepper and tomato plants = assay: Leaf numbers, leaf area and dry weight of greenhouse-grown tomato and pepper; type: in vivo; settings: foliar 1 g/L or 0.5 g+0.5 g/L, assessed at eight weeks
Description: Pepper and tomato plants were grown from seedlings for eight weeks in a greenhouse with ambient light at a constant 75° F. temperature. All plants received a standard fertigation treatment. Plants were destructively assessed at eight weeks. Each treatment had 20 single-plant replicates. Plants were treated with foliar applications of 2HOP (1 g/L water), […] water), or […] water). Each plant received approximately 50 ml of spray solution (sprayed to drip). All treatments included a wetting agent (polyalkyl glucoside) at 0.025% v/v addition. Plants received a light, cover spray at week 4. Plants were assessed in terms of leaf number per plant, leaf area/plant, and total dry weight/plant. In addition, at harvest, a composite leaf sample (10 leaves/plant, 200 leaves total) from each tomato treatment was collected, pooled with the other replicates, and assessed for elemental content which is presented in Table 18.

oat seedlings [9] = assay: Nitrate uptake rate of hydroponic oat seedlings; type: in vivo; settings: first four hours of treatment
Description: Oat seedlings were either treated or untreated and their rates of nitrogen uptake were measured. Oat seedlings were hydroponically grown in a greenhouse under ambient light at 75° F. with a complete standard soluble nutrient solution. They were acclimated to constant light, then deprived of nitrogen for a period, and then their nitrogen (nitrate) was replenished with or without 2HOP in the nutrient solution. The plant root systems were submerged in the appropriate solutions and the plants were allowed to grow and take up nitrate. The depletion of nitrate from the solution was measured every four hours to determine the rate of nitrate uptake by the plants.

leaf lettuce seedlings = assay: Dry weight and carbon fixation capability in lettuce; type: in vivo; settings: weekly foliar 100 micromolar
Description: Sets (replicates) of leaf lettuce seedlings were treated with 2HOP or left untreated. Seedlings were grown in a greenhouse (75° F.) with ambient light, supplied with a standard liquid nutrient solution. The treated plants received weekly foliar sprays containing 100 micromolar 2HOP. Each replicate contained 20 plants in a tray. All plants were assessed for each prescribed parameter. For all parameter values vs control p=<0.05. RUBISCO is ribulose bisphosphate carboxylase, the major carbon-fixing enzyme.

physchem = settings: aqueous solutions
oat seedlings [10] = assay: Proline accumulation in oat seedlings; type: in vivo; settings: weekly foliar 100 micromolar, 3 weeks; untreated undetectable
Description: Sets of oat seedlings were grown and either treated or not treated with 2-hydroxy-5-oxoproline. The plants were grown in a greenhouse at 75° F. with ambient light and provided a standard complete nutrient plant food. Weekly foliar treatments were applied with 100 micromolar 2HOP began at the two-true leaf stage and continued for 3 weeks. Leaves from 20 plants were sampled and the free pools of proline were measured.

oat seedlings [11] = assay: Leaf protein content of oat seedlings; type: in vivo; settings: three weekly foliar treatments 100 micromolar
Description: Sets of oat seedlings were treated or untreated with 2HOP and the total foliar protein content was compared. Seedlings were greenhouse-grown at 75° F. under ambient light and provided a standard complete nutrient. The seedlings were given three weekly foliar treatments with 2HOP (100 micromolar) beginning at the two-true leaf stage.

## calcium phosphite
[1]
  DON grain levels: largest reduction

## O=C1CC[C@@H](C(=O)O)N1 [L-PGA, L-pyroglutamate]
[2]
  cold damage compared with untreated plants: less cold damage
[3]
  soil Root Knot nematode populations: reduced
Plant parasitic nematode
  efficacy of Nemacur in soil plant parasitic nematode population suppression: increased the efficacy
Wheat (Winter White)
  phytotoxic impact of herbicides on wheat: suppression of the phytotoxic impact
  canopy biomass compared to the untreated: visual increase in canopy biomass
[4]
  direct suppression of fungal growth (total surface area of colonies): no direct suppression of fungal growth
[5]
  wheat yield compared to the untreated plots: increased
Oat seedlings [6]
  increase of CO2 fixation compared to the untreated: 21%
Lettuce plants
  tissue levels of aromatic amino acids: increased
[7]
  increase of emergence versus the untreated: 19%
  leaf emergence compared to the untreated group: increased
Grapevines
  yield of grapevines: elevated yield
[8]
  effect on free-living (beneficial nematodes): minimal effect

## O=C1CC[C@@](O)(C(=O)O)N1 [2HOP, 2-hydroxy-5-oxoproline]
Pepper and tomato plants
  number of leaves, leaf area, and total dry weight: greatest increases
[2]
  cold damage compared with untreated plants: less cold damage
Wheat (Winter White)
  phytotoxic impact of herbicides on wheat: suppression of the phytotoxic impact
  canopy biomass compared to the untreated: visual increase in canopy biomass
Oat seedlings [9]
  rate of nitrate uptake relative to untreated counterparts: approximately double
Oat seedlings [9]; untreated 5.8
  rate of nitrate uptake: 11.5 umol/gfwt/h
Leaf lettuce seedlings
  elevation of CO2 fixation: > 50%
  elevation of RUBISCO activation: 129%
Leaf lettuce seedlings; average across all biomass parameters
  elevation of biomass: 34%
physchem
  solubility: 145 to 435 mg/mL (≈ 999 to 3000 mM)
[4]
  direct suppression of fungal growth (total surface area of colonies): no direct suppression of fungal growth
Oat seedlings [10]
  free proline pools in leaves: 2.6 micromol/g fwt
[5]
  wheat yield compared to the untreated plots: increased
Oat seedlings [6]; higher rate than L-PGA
  CO2 fixation rate, 2HOP compared to L-PGA: > 11%
Oat seedlings [6]; plants 26 days old
  increase of RUBISCO activation: 48%
Oat seedlings [6]
  increase of CO2 fixation compared to the untreated: 34%
Lettuce plants
  tissue levels of aromatic amino acids: increased
[7]
  leaf emergence compared to the untreated group: increased
Oat seedlings [11]
  total foliar fresh weight, % of the control plants: 183%
  total foliar protein, % of untreated control plants: 252%
  total protein in the foliar parts, % of untreated control plants: 252%
Oat seedlings [11]; control 6.0
  foliar protein concentration: 8.8 mg/g fresh weight
